# Tested on: HCT116 colorectal cancer cells
# Experiment: Cisplatin sensitization assay (96 h cell viability MTS);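 note: compound concentration needed to lower the Cisplatin-alone IC50 by a set fold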
# Type: cell-based
# Conditions: 96 h MTS, compound plus Cisplatin
# In short: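 Test compound and cisplatin were added together as a full matrix of 2-fold serial dilutions, each from a top final concentration of 10 μM. Cells were incubated 96 h at 37° C in 5% CO2, then viability was read by MTS after a further 1 h incubation.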
row,SMILES,Cisplatin Sensitization Assay
1,"CN1CCC[C@H]1COc1ccncc1NC(=O)c1c(N)nn2cc(Cl)cnc12 [I-O-50, (S)-2-amino-6-chloro-N-(4-((1-methylpyrrolidin-2-yl)methoxy)pyridin-3-yl)pyrazolo[1,5-a]pyrimidine-3-carboxamide]",+ (Compounds with a Cisplatin sensitization value >0.2 μM but <5 μM are marked with “+.”)
2,"Nc1nn2cc(Cl)cnc2c1C(=O)Nc1cnccc1O[C@H]1C[C@@]2(CCN2)C1 [I-O-79, N-(4-((4r,6s)-1-azaspiro[3.3]heptan-6-yloxy)pyridin-3-yl)-2-amino-6-chloropyrazolo[1,5-a]pyrimidine-3-carboxamide]",++ (Compounds with a Cisplatin sensitization value >0.02 μM but <0.2 μM are marked with “++.”)
3,"Nc1nn2cc(F)cnc2c1C(=O)Nc1cncc(F)c1N1CCC(C(=O)N2CC(F)(F)C2)CC1 [I-G-73, 2-amino-N-(4-(4-(3,3-difluoroazetidine-1-carbonyl)piperidin-1-yl)-5-fluoropyridin-3-yl)-6-fluoropyrazolo[1,5-a]pyrimidine-3-carboxamide]",+++ (Compounds with a Cisplatin sensitization value of <0.02 μM are marked with “+++.”)
4,"Nc1nn2cc(F)cnc2c1C(=O)Nc1cnccc1N1CCN(S(=O)(=O)C2CCOCC2)CC1 [I-N-177, 2-amino-6-fluoro-N-(4-(4-((tetrahydro-2H-pyran-4-yl)sulfonyl)piperazin-1-yl)pyridin-3-yl)pyrazolo[1,5-a]pyrimidine-3-carboxamide]",+++ (Compounds with a Cisplatin sensitization value of <0.02 μM are marked with “+++.”)
5,"Nc1nn2cc(F)cnc2c1C(=O)Nc1cnccc1N1CCN(C2CCOC2)CC1 (racemic) [I-N-19, (R,S)-2-amino-6-fluoro-N-(4-(4-(tetrahydrofuran-3-yl)piperazin-1-yl)pyridin-3-yl)pyrazolo[1,5-a]pyrimidine-3-carboxamide]",+++ (Compounds with a Cisplatin sensitization value of <0.02 μM are marked with “+++.”)
6,"N#CCc1cnc2c(C(=O)Nc3cnccc3OC3CCCOC3)c(N)nn2c1 (stereo not shown) [I-O-41, 2-amino-6-(cyanomethyl)-N-(4-((tetrahydro-2H-pyran-3-yl)oxy)pyridin-3-yl)pyrazolo[1,5-a]pyrimidine-3-carboxamide]",+++ (Compounds with a Cisplatin sensitization value of <0.02 μM are marked with “+++.”)
7,"CCN1CCN(c2ccncc2NC(=O)c2c(N)nn3cc(F)cnc23)CC1 [I-N-17, 2-amino-N-(4-(4-ethylpiperazin-1-yl)pyridin-3-yl)-6-fluoropyrazolo[1,5-a]pyrimidine-3-carboxamide]",+++ (Compounds with a Cisplatin sensitization value of <0.02 μM are marked with “+++.”)
8,"CS(=O)(=O)C1CCN(c2c(Cl)cncc2NC(=O)c2c(N)nn3cc(F)cnc23)C1 (stereo not shown) [I-N-287, 2-amino-N-(5-chloro-4-(3-(methylsulfonyl)pyrrolidin-1-yl)pyridin-3-yl)-6-fluoropyrazolo[1,5-a]pyrimidine-3-carboxamide]",+++ (Compounds with a Cisplatin sensitization value of <0.02 μM are marked with “+++.”)
9,"Cc1cncc(NC(=O)c2c(N)nn3cc(F)cnc23)c1N1CCC(C(=O)N2CCN(C)CC2)CC1 [I-G-55, 2-amino-6-fluoro-N-(5-methyl-4-(4-(4-methylpiperazine-1-carbonyl)piperidin-1-yl)pyridin-3-yl)pyrazolo[1,5-a]pyrimidine-3-carboxamide]",+++ (Compounds with a Cisplatin sensitization value of <0.02 μM are marked with “+++.”)
10,"Nc1nn2cc(F)cnc2c1C(=O)Nc1cnccc1OC1CC[S+]([O-])CC1 (stereo not shown) [I-O-44, 2-amino-6-fluoro-N-(4-((1-oxidotetrahydro-2H-thiopyran-4-yl)oxy)pyridin-3-yl)pyrazolo[1,5-a]pyrimidine-3-carboxamide]",++ (Compounds with a Cisplatin sensitization value >0.02 μM but <0.2 μM are marked with “++.”)
11,"Nc1nn2cc(F)cnc2c1C(=O)Nc1cnccc1-c1ccncc1 [I-C-24, N-([4,4′-bipyridin]-3-yl)-2-amino-6-fluoropyrazolo[1,5-a]pyrimidine-3-carboxamide]",+++ (Compounds with a Cisplatin sensitization value of <0.02 μM are marked with “+++.”)
12,"Cc1ncn(-c2ccncc2NC(=O)c2c(N)nn3cc(F)cnc23)n1 [I-N-161, 2-amino-6-fluoro-N-(4-(3-methyl-1H-1,2,4-triazol-1-yl)pyridin-3-yl)pyrazolo[1,5-a]pyrimidine-3-carboxamide]",+ (Compounds with a Cisplatin sensitization value >0.2 μM but <5 μM are marked with “+.”)
13,"CN(C)CCc1cnn(-c2ccncc2NC(=O)c2c(N)nn3cc(F)cnc23)c1 [I-N-9, 2-amino-N-(4-(4-(2-(dimethylamino)ethyl)-1H-pyrazol-1-yl)pyridin-3-yl)-6-fluoropyrazolo[1,5-a]pyrimidine-3-carboxamide]",+ (Compounds with a Cisplatin sensitization value >0.2 μM but <5 μM are marked with “+.”)
14,"CN1CCC(c2c(F)cncc2NC(=O)c2c(N)nn3cc(F)cnc23)CC1 [I-C-14, 2-amino-6-fluoro-N-(5-fluoro-4-(1-methylpiperidin-4-yl)pyridin-3-yl)pyrazolo[1,5-a]pyrimidine-3-carboxamide]",+ (Compounds with a Cisplatin sensitization value >0.2 μM but <5 μM are marked with “+.”)
15,"Nc1nn2cc(Cl)cnc2c1C(=O)Nc1cnccc1N1CCN(C2COC2)CC1 [I-N-58, 2-amino-6-chloro-N-(4-(4-(oxetan-3-yl)piperazin-1-yl)pyridin-3-yl)pyrazolo[1,5-a]pyrimidine-3-carboxamide]",++ (Compounds with a Cisplatin sensitization value >0.02 μM but <0.2 μM are marked with “++.”)
16,"CN(C)CCCNC(=O)C1CCN(c2c(F)cncc2NC(=O)c2c(N)nn3cc(F)cnc23)CC1 [I-G-26, 2-amino-N-(4-(4-((3-(dimethylamino)propyl)carbamoyl)piperidin-1-yl)-5-fluoropyridin-3-yl)-6-fluoropyrazolo[1,5-a]pyrimidine-3-carboxamide]",++ (Compounds with a Cisplatin sensitization value >0.02 μM but <0.2 μM are marked with “++.”)
17,"N#CCc1cnc2c(C(=O)Nc3cnccc3N3CCC(O)CC3)c(N)nn2c1 [I-N-83, 2-amino-6-(cyanomethyl)-N-(4-(4-hydroxypiperidin-1-yl)pyridin-3-yl)pyrazolo[1,5-a]pyrimidine-3-carboxamide]",++ (Compounds with a Cisplatin sensitization value >0.02 μM but <0.2 μM are marked with “++.”)
18,"CN(C)CC1CCN(c2ccncc2NC(=O)c2c(N)nn3cc(Cl)cnc23)CC1 [I-N-45, 2-amino-6-chloro-N-(4-(4-((dimethylamino)methyl)piperidin-1-yl)pyridin-3-yl)pyrazolo[1,5-a]pyrimidine-3-carboxamide]",++ (Compounds with a Cisplatin sensitization value >0.02 μM but <0.2 μM are marked with “++.”)
19,"CN1CC2(CCN(c3c(F)cncc3NC(=O)c3c(N)nn4cc(F)cnc34)CC2)OC1=O [I-N-229, 2-amino-6-fluoro-N-(5-fluoro-4-(3-methyl-2-oxo-1-oxa-3,8-diazaspiro[4.5]decan-8-yl)pyridin-3-yl)pyrazolo[1,5-a]pyrimidine-3-carboxamide]",+++ (Compounds with a Cisplatin sensitization value of <0.02 μM are marked with “+++.”)

# — US10787452B2 (Vertex Pharmaceuticals Incorporated, priority 2012, dated 2020)
